Earlier results, collected in patent publication US20010046548A1, “Anticholesterolemic edible oil” (priority 1998, published 2001).

Row | SMILES | fraction absorbed (ingested, small intestine) | absorption (in vivo)
1 | CC[C@H](CC[C@@H](C)[C@H]1CC[C@H]2[C@@H]3CC=C4C[C@@H](O)CC[C@]4(C)[C@H]3CC[C@]12C)C(C)C [beta-sitosterol] | less than 5% | –
2 | CC[C@H](CC[C@@H](C)[C@H]1CC[C@H]2[C@@H]3CC[C@H]4C[C@@H](O)CC[C@]4(C)[C@H]3CC[C@]12C)C(C)C [sitostanol] | – | completely unabsorbed
